Data from patent US10047098B2, “C5-C6-oxacyclic fused iminopyrimidinone compounds as bace inhibitors, compositions, and their use” (Merck Sharp & Dohme Corp., priority 2014, dated 2018).

What was measured:
[1] = target: Recombinant human soluble BACE1 catalytic domain (Homo sapiens (Human), UniProt P56817); experiment: BACE1 HTRF FRET Assay; assay type: biochemical; conditions: Ki calculated from IC50 using the Cheng-Prusoff equation; QSY7-APPswe-Eu substrate, pH 5.0; read-out: BACE-1 Ki
Excerpt: Reagents: Na^+-Acetate pH 5.0; 1% Brij-35; Glycerol; Dimethyl Sulfoxide (DMSO); Recombinant human soluble BACE1 catalytic domain (>95% pure); APP Swedish mutant peptide substrate (QSY7-APP^swe-Eu): QSY7-EISEVNLDAEFC-Europium-amide.
A homogeneous time-resolved FRET assay can be used to determine IC50 values for inhibitors of the soluble human BACE1 catalytic domain. This assay monitors the increase of 620 nm fluorescence that resulted from BACE1 cleavage of an APPswedish APP^swe mutant peptide FRET substrate (QSY7-EISEVNLDAEFC-Europium-amide). This substrate contains an N-terminal QSY7 moiety that serves as a quencher of the C-terminal Europium fluorophore (620 nm Em). In the absence of enzyme activity, 620 nm fluorescence is low in the assay and increased linearly over 3 hours in the presence of uninhibited BACE1 enzyme. Inhibition of BACE1 cleavage of the QSY7-APP^swe-Eu substrate by inhibitors is manifested as a suppression of 620 nm fluorescence.
Varying concentrations of inhibitors at 3× the final desired concentration in a volume of 10 ul are preincubated with purified human BACE1 catalytic domain (3 nM in 10 μl) for 30 minutes at 30° C. in reaction buffer containing 20 mM Na-Acetate pH 5.0, 10% glycerol, 0.1% Brij-35 and 7.5% DSMO. Reactions are initiated by addition of 10 μl of 600 nM QSY7-APP^swe-Eu substrate (200 nM final) to give a final reaction volume of 30 μl in a 384 well Nunc HTRF plate. The reactions are incubated at 30° C. for 1.5 hours. The 620 nm fluorescence is then read on a Rubystar HTRF plate reader (BMG Labtechnologies) using a 50 millisecond delay followed by a 400 millisecond acquisition time window. Inhibitor IC50 values are derived from non-linear regression analysis of concentration response curves. Ki values are then calculated from IC50 values using the Cheng-Prusoff equation using a previously determined […] of 8 μM for the QSY7-APP^swe-Eu substrate at BACE1.

[2] = target: purified human autoBACE-2 (Homo sapiens (Human), UniProt Q9Y5Z0); experiment: BACE-2 Assay (BACE-HTRF assay); assay type: biochemical; conditions: Ki calculated from IC50 using the Cheng-Prusoff equation; QSY7-EISEVNLDAEFC-Eu-amide substrate, pH 5.0
Sequence of purified human autoBACE-2 (Q9Y5Z0 63-473 limits assumed): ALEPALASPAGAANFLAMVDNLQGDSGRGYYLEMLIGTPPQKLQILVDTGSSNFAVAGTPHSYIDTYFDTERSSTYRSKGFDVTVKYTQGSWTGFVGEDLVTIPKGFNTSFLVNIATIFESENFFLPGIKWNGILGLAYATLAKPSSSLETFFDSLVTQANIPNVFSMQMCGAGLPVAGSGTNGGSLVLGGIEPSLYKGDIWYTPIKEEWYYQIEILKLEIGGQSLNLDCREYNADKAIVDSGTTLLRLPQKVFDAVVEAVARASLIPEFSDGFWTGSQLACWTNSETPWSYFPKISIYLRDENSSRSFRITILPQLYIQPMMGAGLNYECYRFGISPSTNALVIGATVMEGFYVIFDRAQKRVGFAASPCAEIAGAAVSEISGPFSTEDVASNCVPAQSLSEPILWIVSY
Protocol: Inhibitor IC50s at purified human autoBACE-2 are determined in a time-resolved endpoint proteolysis assay that measures hydrolysis of the QSY7-[…]-Eu-amide FRET peptide substrate (BACE-HTRF assay). […] DMSO is present at 5% final concentration in the assay. Following laser excitation of sample wells at 320 nm, the fluorescence signal at 620 nm is collected for 400 ms following a 50 μs delay on a RUBYstar HTRF plate reader (BMG Labtechnologies). Raw RFU data is normalized to maximum (1.0 nM BACE/DMSO) and minimum (no enzyme/DMSO) RFU values. […] The Ki values are calculated from the IC50 using the Cheng-Prusoff equation.

Sequence of Recombinant human soluble BACE1 catalytic domain (P56817 75-416): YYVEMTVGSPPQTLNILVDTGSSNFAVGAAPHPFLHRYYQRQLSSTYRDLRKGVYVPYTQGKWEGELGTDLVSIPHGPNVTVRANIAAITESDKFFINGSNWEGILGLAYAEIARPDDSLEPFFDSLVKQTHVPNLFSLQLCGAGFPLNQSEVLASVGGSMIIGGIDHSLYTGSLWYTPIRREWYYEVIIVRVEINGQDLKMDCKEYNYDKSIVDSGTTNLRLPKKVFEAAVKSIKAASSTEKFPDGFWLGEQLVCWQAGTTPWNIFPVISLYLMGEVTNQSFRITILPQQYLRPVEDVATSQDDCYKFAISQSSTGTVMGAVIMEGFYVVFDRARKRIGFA

| SMILES | Ki [1] | Ki [2] |
| --- | --- | --- |
| CN1C(=N)N[C@@]2(c3cc(C#N)ccc3F)CO[C@@H](C3CC3)C[C@H]2C1=O [Example 38, 3-((4aR,6R,8aS)-6-cyclopropyl-2-imino-3-methyl-4-oxohexahydro-1H-pyrano[3,4-d]pyrimidin-8a(8H)-yl)-4-fluorobenzonitrile] | 206 nM | 398 nM |
| CN1C(=N)N[C@@]2(c3cc(OCC45CC(C#N)(C4)C5)ccc3F)CO[C@@H](C3CC3)C[C@H]2C1=O [Example 37, 3-((3-((4aR,6R,8aS)-6-cyclopropyl-2-imino-3-methyl-4-oxohexahydro-1H-pyrano[3,4-d]pyrimidin-8a(8H)-yl)-4-fluorophenoxy)methyl)bicyclo[1.1.1]pentane-1-carbonitrile] | 9 nM | 127 nM |
| CN1C(=N)N[C@@]2(c3cc(Oc4cc(-n5cccn5)ccn4)ccc3F)CO[C@@H](C3CC3)C[C@H]2C1=O [Example 56, (4aR,6R,8aS)-8a-(5-((4-(1H-pyrazol-1-yl)pyridin-2-yl)oxy)-2-fluorophenyl)-6-cyclopropyl-2-imino-3-methylhexahydro-1H-pyrano[3,4-d]pyrimidin-4(4aH)-one] | 9 nM | 51 nM |
| C[C@H]1C[C@H]2C(=O)N(C)C(=N)N[C@@]2(c2cc(Oc3cc(C#N)ccn3)ccc2F)CO1 [Example 21, 2-(4-fluoro-3-((4aR,6S,8aS)-2-imino-3,6-dimethyl-4-oxohexahydro-1H-pyrano[3,4-d]pyrimidin-8a(8H)-yl)phenoxy)isonicotinonitrile] | 6 nM | 6 nM |
| CN1C(=N)N[C@@]2(c3cc(OCC4CCC4)ccc3F)CO[C@@H](C3CC3)C[C@H]2C1=O [Example 44, (4aR,6R,8aS)-8a-(5-(cyclobutylmethoxy)-2-fluorophenyl)-6-cyclopropyl-2-imino-3-methylhexahydro-1H-pyrano[3,4-d]pyrimidin-4(4aH)-one] | 30 nM | 20 nM |
| CN1C(=N)N[C@@]2(c3cc(Oc4ncncc4F)ccc3F)CO[C@@H](C3CC3)CC2C1=O (stereo partly drawn) [Example 58, (6R,8aS)-6-cyclopropyl-8a-(2-fluoro-5-((5-fluoropyrimidin-4-yl)oxy)phenyl)-2-imino-3-methylhexahydro-IH-pyrano[3,4-d]pyrimidin-4(4aH)-one] | 13 nM | 35 nM |
| Cc1cc([C@H]2C[C@H]3C(=O)N(C)C(=N)N[C@@]3(c3cc(F)ccc3F)CO2)on1 [Example 8, (4aR,6R,8aS)-8a-(2,5-difluorophenyl)-2-imino-3-methyl-6-(3-methylisoxazol-5-yl)hexahydro-1H-pyrano[3,4-d]pyrimidin-4(4aH)-one] | 131 nM | 34 nM |
| CN1C(=N)N[C@@]2(c3cc(Oc4cccc(-n5cccn5)n4)ccc3F)CO[C@@H](C3CC3)C[C@H]2C1=O [Example 34, (4aR,6R,8aS)-8a-(5-((6-(1H-pyrazol-1-yl)pyridin-2-yl)oxy)-2-fluorophenyl)-6-cyclopropyl-2-imino-3-methylhexahydro-1H-pyrano[3,4-d]pyrimidin-4(4aH)-one] | 2.2 nM | 13.5 nM |
| COC[C@H]1C[C@H]2C(=O)N(C)C(=N)N[C@@]2(c2ccc(F)cc2F)CO1 [Example 1, (4aR,6R,8aS)-8a-(2,4-difluorophenyl)-2-imino-6-(methoxymethyl)-3-methylhexahydro-1H-pyrano[3,4-d]pyrimidin-4(4aH)-one] | 629 nM | 237 nM |
| CN1C(=N)N[C@@]2(c3cc(OCC(F)F)ccc3F)CO[C@@H](C3CC3)C[C@H]2C1=O [Example 46, (4aR,6R,8aS)-6-cyclopropyl-8a-(5-(2,2-difluoroethoxy)-2-fluorophenyl)-2-imino-3-methylhexahydro-1H-pyrano[3,4-d]pyrimidin-4(4aH)-one] | 40 nM | 41 nM |
| CN1C(=N)N[C@@]2(c3cc(Oc4ncccn4)ccc3F)CO[C@@H](C3CC3)C[C@H]2C1=O [Example 43, (4aR,6R,8aS)-6-cyclopropyl-8a-(2-fluoro-5-(pyrimidin-2-yloxy)phenyl)-2-imino-3-methylhexahydro-1H-pyrano[3,4-d]pyrimidin-4(4aH)-one] | 52 nM | 191 nM |
| COC[C@H]1C[C@H]2C(=O)N(C)C(=N)N[C@@]2(c2cc(Oc3ncccc3F)ccc2F)CO1 [Example 31, (4aR,6R,8aS)-8a-(2-fluoro-5-((3-fluoropyridin-2-yl)oxy)phenyl)-2-imino-6-(methoxymethyl)-3-methylhexahydro-1H-pyrano[3,4-d]pyrimidin-4(4aH)-one] | 4 nM | 8 nM |
| COC[C@H]1C[C@H]2C(=O)N(C)C(=N)N[C@@]2(c2cc(OCC3CC3)c(F)cc2F)CO1 [Example 5, (4aR,6R,8aS)-8a-(5-(cyclopropylmethoxy)-2,4-difluorophenyl)-2-imino-6-(methoxymethyl)-3-methylhexahydro-1H-pyrano[3,4-d]pyrimidin-4(4aH)-one] | 68 nM | 82 nM |
| CN1C(=N)N[C@@]2(c3cc(OCC4CC4(F)F)ccc3F)CO[C@@H](C3CC3)C[C@H]2C1=O (stereo partly shown) [Example 52] | 31 nM | 18 nM |
| Cc1nccc(Oc2ccc(F)c([C@]34CO[C@@H](C5CC5)C[C@H]3C(=O)N(C)C(=N)N4)c2)n1 [Example 22, (4aR,6R,8aS)-6-cyclopropyl-8a-(2-fluoro-5-((2-methylpyrimidin-4-yl)oxy)phenyl)-2-imino-3-methylhexahydro-1H-pyrano[3,4-d]pyrimidin-4(4aH)-one] | 57 nM | 182 nM |
| C[C@H]1C[C@H]2C(=O)N(C)C(=N)N[C@@]2(c2cc(Oc3cnccn3)ccc2F)CO1 [Example 66, (4aR,6S,8aS)-8a-(2-fluoro-5-(pyrazin-2-yloxy)phenyl)-2-imino-3,6-dimethylhexahydro-1H-pyrano[3,4-d]pyrimidin-4(4aH)-one] | 11.8 nM | 30.3 nM |

Other lines, results leading:

| Ki [1] | Ki [2] | SMILES |
| --- | --- | --- |
| 8400 nM | 1590 nM | C=CCCn1cc(F)c([C@]23CO[C@@H](C)C[C@H]2C(=O)N(C)C(=N)N3)cc1=O [Example 95, (4aR,6S,8aS)-8a-(1-(but-3-en-1-yl)-5-fluoro-2-oxo-1,2-dihydropyridin-4-yl)-2-imino-3,6-dimethylhexahydro-1H-pyrano[3,4-d]pyrimidin-4(4aH)-one] |
| 910 nM | 304 nM | COC[C@H]1C[C@H]2C(=O)N(C)C(=N)N[C@@]2(c2cc(Br)ccc2F)CO1 [Example 89, (4aR,6R,8aS)-8a-(5-bromo-2-fluorophenyl)-2-imino-6-(methoxymethyl)-3-methylhexahydro-1H-pyrano[3,4-d]pyrimidin-4(4aH)-one] |
| 1450 nM | 242 nM | C[C@H]1C[C@H]2C(=O)N(C)C(=N)N[C@@]2(c2cc(Oc3cc4ccccc4cn3)ccc2F)CO1 [Example 77, (4aR,6S,8aS)-8a-(2-fluoro-5-(isoquinolin-3-yloxy)phenyl)-2-imino-3,6-dimethylhexahydro-1H-pyrano[3,4-d]pyrimidin-4(4aH)-one] |
| 145 nM | 31.3 nM | C[C@H]1C[C@H]2C(=O)N(C)C(=N)N[C@@]2(c2cc(Oc3ncccc3F)ncc2F)CO1 [Example 96] |
| 70 nM | 17.2 nM | CN1C(=N)N[C@@]2(c3cc(O)ccc3F)CO[C@@H](c3ccc(F)cc3)C[C@H]2C1=O [Example 84, (4aR,6R,8aS)-8a-(2-fluoro-5-hydroxyphenyl)-6-(4-fluorophenyl)-2-imino-3-methylhexahydro-1H-pyrano[3,4-d]pyrimidin-4(4aH)-one] |
| 11 nM | 6.78 nM | C[C@H]1C[C@H]2C(=O)N(C)C(=N)N[C@@]2(c2cc(Oc3ncncc3F)ccc2F)CO1 [Example 69, (4aR,6S,8aS)-8a-(2-fluoro-5-((5-fluoropyrimidin-4-yl)oxy)phenyl)-2-imino-3,6-dimethylhexahydro-1H-pyrano[3,4-d]pyrimidin-4(4aH)-one] |
| 11.1 nM | 2.19 nM | C[C@H]1C[C@H]2C(=O)N(C)C(=N)N[C@@]2(c2cc(OCC3CC3)ncc2F)CO1 [Example 92, (4aR,6S,8aS)-8a-(2-(cyclopropylmethoxy)-5-fluoropyridin-4-yl)-2-imino-3,6-dimethylhexahydro-1H-pyrano[3,4-d]pyrimidin-4(4aH)-one] |
